≈ marks a conversion by molar mass, not a printed value.
tested on: U-46619-induced platelet aggregation; assay: U-46619-induced platelet aggregation-inhibiting activity (in vitro); format: cell-based; conditions: human platelet-rich plasma, 4×10^5 cells/mm^3, U-46619 solution (0.2 μg/ml), 37° C., Born's method
Experimental: The bottom layer was further centrifuged to give platelet-poor plasma ("PPP") as the supernatant. PRP was diluted with PPP so that the platelet count was 4×10^5 cells/mm^3. 25 μl of a test compound solution was added to 200 μl of said diluted PRP.

Compound	IC50 [µg/mL]
Cc1ccc(S(=O)(=O)NC2CCc3cc(CC(=O)NCCC(=O)O)ccc3C2)cc1 (stereo not drawn) [Compound No. 1]	0.2 (≈ 0.465 µM)
O=C([O-])Cc1ccc2c(c1)CCC(NS(=O)(=O)c1ccc(Cl)cc1)C2.[Na+] (stereo not drawn) [Compound No. 2, Sodium 6(4-chlorophenyl)sulfonylamino-5,6,7,8-tetrahydronaphthalene-2-acetate]	0.06
O=C(O)CCCNC(=O)Cc1ccc2c(c1)CCC(NS(=O)(=O)c1ccc(Cl)cc1)C2 (stereo not drawn) [Compound No. 3]	0.7 (≈ 1.51 µM)

From patent US5206428A, “Tetrahydronaphthalene derivatives and preparation thereof” (Tanabe Seiyaku Co., Ltd., priority 1989, dated 1993)
